Where two headings read alike, the source gives them in different places.
What was measured:
[1] = system: 229E human corona virus (hCoV); test: 229E live virus assay (CPE, ATPlite readout in MRC-5 cells); type: cell-based, hCoV-229E; conditions: MOI 0.05, ATPlite readout, run in duplicate
SARS-CoV-2 3CL-protease = SARS-CoV-2 3CL-protease (Severe acute respiratory syndrome coronavirus 2, UniProt P0DTD1); test: SARS-CoV-2 3C-like (3CL) protease fluorescence assay (FRET); type: biochemical; conditions: read-out: FRET IC50
[2] = Human coronavirus 229E, MRC5, hCoV-229E live virus
[3] = SARS-CoV-2 3CL-protease 10 nM, 30 min preincubation at RT, substrate 40 µM, test compounds 0 - 10 µM, duplicate

SMILES | EC50 [1, 2] | IC50 (SARS-CoV-2 3CL-protease) | IC50 (SARS-CoV-2 3CL-protease; [3]) | EC50 ([1]; hCoV-229E live virus)
COc1cccc2[nH]c(C(=O)N[C@@H](COC(C)(C)C)C(=O)N3C[C@]4(C[C@H]3C#N)C(=O)Nc3ccccc34)cc12 [Example 124] | < 0.1 µM | < 0.1 µM | – | –
CC(C)(C)OC[C@H](NC(=O)c1cc2c(F)cc(F)cc2[nH]1)C(=O)N1C[C@]2(C[C@H]1C#N)C(=O)Nc1ccccc12 [Example 125] | 0.1 to 1 µM | < 0.1 µM | – | –
CC(C)(C)CC(NC(=O)c1cnn(-c2ccc(F)cc2)c1)C(=O)N1CC2(CC1C#N)C(=O)Nc1ccccc12 (centres unmarked) [Example 146] | < 0.1 µM | < 0.1 µM | – | –
CC(C)C[C@H](NC(=O)c1cc2c(F)cc(F)c(F)c2[nH]1)C(=O)N1C[C@]2(C[C@H]1C#N)C(=O)Nc1ccccc12 [Example 152] | – | – | < 0.1 µM | –
CC(C)C[C@@H](C(=O)N1C[C@]2(C[C@H]1C(=O)C(=O)NC1CCCCC1)C(=O)Nc1ccccc12)N(C)C(=O)c1cc2c(F)cc(F)c(F)c2[nH]1 [Example 156] | > 1 µM | > 1 µM | – | –
CC(C)C[C@@H](C(=O)N1C[C@]2(C[C@H]1C#N)C(=O)Nc1ccccc12)N(C)C(=O)c1ccccc1OC(F)F [Example 176] | < 0.1 µM | < 0.1 µM | – | –
CC(C)C[C@@H](C(=O)N1C[C@]2(C[C@H]1C#N)C(=O)Nc1ccccc12)N(C)C(=O)c1cc2cc(Br)ccc2cn1 [Example 230] | < 0.1 µM | 0.1 to 1 µM | – | –
COc1cc(C(=O)N(C)[C@@H](CC(C)C)C(=O)N2C[C@]3(C[C@H]2C#N)C(=O)Nc2ccccc23)cn2cc(C(F)F)nc12 [Example 255] | < 0.1 µM | < 0.1 µM | – | –
CC(C)C[C@@H](C(=O)N1C[C@]2(C[C@H]1C#N)C(=O)Nc1ccccc12)N(C)C(=O)[C@@H]1C[C@H]1c1ccccc1 [Example 280] | < 0.1 µM | < 0.1 µM | – | –
CC(C)CC(C(=O)N1CC2(CC1C#N)C(=O)Nc1ccccc12)N(C)C(=O)C1CC1c1ccccc1 (centres unmarked) [Example 281] | – | < 0.1 µM | – | < 0.1 µM
CC(C)CC(C(=O)N1CC2(CC1C#N)C(=O)Nc1ccccc12)N(C)C(=O)c1nnn(-c2ccccc2)n1 (centres unmarked) [Example 287] | < 0.1 µM | < 0.1 µM | – | –
CC(C)CC(C(=O)N1CC2(CC1C#N)C(=O)Nc1ccccc12)N(C)C(=O)c1nccc2ccccc12 (centres unmarked) [Example 300] | – | – | 0.1 to 1 µM | –
CC(C)CC(C(=O)N1CC2(CC1C#N)C(=O)Nc1ccccc12)N(C)C(=O)c1cc(OC2CC2)c2nn(C3CC3)cc2c1 (centres unmarked) [Example 307] | 0.1 to 1 µM | 0.1 to 1 µM | – | –
COc1cc(C(=O)N(C)C(CC(C)C)C(=O)N2CC3(CC2C#N)C(=O)Nc2ccccc23)cc2cn(C3CC3)nc12 (centres unmarked) [Example 308] | 0.1 to 1 µM | < 0.1 µM | – | –
CC(C)CC(C(=O)N1CC2(CC1C#N)C(=O)Nc1ccccc12)N(C)C(=O)c1cnc2ccc(F)cc2c1 (centres unmarked) [Example 337] | – | – | < 0.1 µM | –
CC(C)C[C@@H](C(=O)N1C[C@]2(C[C@H]1C#N)C(=O)Nc1ccccc12)N(C)C(=O)[C@H]1CCN(C(=O)C(F)(F)F)C1 [Example 346] | < 0.1 µM | < 0.1 µM | – | –

SMILES | EC50 [1, 2] | IC50 (SARS-CoV-2 3CL-protease) | IC50 (SARS-CoV-2 3CL-protease; [3]) | EC50 ([1]; hCoV-229E live virus)
CC(C)CC(C(=O)N1CC2(CC1C#N)C(=O)Nc1ccccc12)N(C)C(=O)C1CCN(C(=O)C(F)(F)F)C1 (centres unmarked) [Example 347] | – | < 0.1 µM | – | < 0.1 µM
COC[C@@H](C(=O)N1C[C@]2(C[C@H]1C#N)C(=O)Nc1ccccc12)N(C)C(=O)c1cc2c(F)cc(F)cc2[nH]1 [Example 369] | – | – | < 0.1 µM | –
CN(C(=O)c1cc2c(F)cc(F)cc2[nH]1)[C@@H](Cc1ccc(O)cc1)C(=O)N1C[C@]2(C[C@H]1C#N)C(=O)Nc1ccccc12 [Example 388] | – | – | < 0.1 µM | –
[2H]C([2H])([2H])N(C(=O)c1cnn(CC(F)(F)F)c1)[C@@H](CCCC)C(=O)N1C[C@]2(C[C@H]1C#N)C(=O)Nc1ccccc12 [Example 394] | – | – | < 0.1 µM | –
CN(C(=O)c1cnn(C(C)(C)C)c1)[C@@H](CC1CC1)C(=O)N1C[C@]2(C[C@H]1C#N)C(=O)Nc1ccccc12 [Example 404] | – | – | < 0.1 µM | –
CN(C(=O)[C@@H](O)C(C)(C)C)[C@@H](CC1CC1)C(=O)N1C[C@]2(C[C@H]1C#N)C(=O)Nc1ccccc12 [Example 416] | < 0.1 µM | < 0.1 µM | – | –
[2H]C([2H])([2H])N(C(=O)C(O)c1ccc(F)cc1)C(CCCC)C(=O)N1CC2(CC1C#N)C(=O)Nc1ccccc12 (centres unmarked) [Example 420] | – | – | < 0.1 µM | –
[2H]C([2H])([2H])N(C(=O)C(O)c1ccc(F)cc1)C(CCCC)C(=O)N1CC2(CC1C#N)C(=O)Nc1ccccc12 (centres unmarked) [Example 421] | – | – | < 0.1 µM | –
C[C@H](OC(=O)N[C@@H](CC(C)(C)C)C(=O)N1C[C@]2(C[C@H]1C#N)C(=O)Nc1ccc(Cl)cc12)c1ccc(F)cc1 [Example 494] | 0.1 to 1 µM | < 0.1 µM | – | –
COC(=O)c1ccc2c(c1)[C@@]1(C[C@@H](C#N)N(C(=O)[C@H](CC(C)C)N(C)C(=O)c3cc4c(F)cc(F)cc4[nH]3)C1)C(=O)N2 [Example 501, methyl (3R,5'S)-5'-cyano-1'-(N-(4,6-difluoro-1H-indole-2-carbonyl)-N-methyl-L-leucyl)-2-oxospiro[indoline-3,3'-pyrrolidine]-5-carboxylate] | < 0.1 µM | – | – | –
CC(C)C[C@@H](C(=O)N1C[C@]2(C[C@H]1C#N)C(=O)Nc1ccc(C(=O)N3CCOCC3)cc12)N(C)C(=O)c1cc2c(F)cc(F)cc2[nH]1 [Example 502, N-((S)-1-((3R,5'S)-5'-cyano-5-(morpholine-4-carbonyl)-2-oxospiro[indoline-3,3'-pyrrolidin]-1'-yl)-4-methyl-1-oxopentan-2-yl)-4,6-difluoro-N-methyl-1H-indole-2-carboxamide] | < 0.1 µM | – | – | –
CC(C)C[C@@H](C(=O)N1C[C@]2(C[C@H]1C#N)C(=O)Nc1ccc(N=[N+]=[N-])cc12)N(C)C(=O)c1cc2c(F)cc(F)cc2[nH]1 [Example 503, N-((S)-1-((3R,5'S)-5-azido-5'-cyano-2-oxospiro[indoline-3,3'-pyrrolidin]-1'-yl)-4-methyl-1-oxopentan-2-yl)-4,6-difluoro-N-methyl-1H-indole-2-carboxamide] | < 0.1 µM | – | – | –
CC(C)C[C@@H](C(=O)N1C[C@]2(C[C@H]1C#N)C(=O)Nc1ccc(NC(=O)C3(F)CC3)cc12)N(C)C(=O)c1cc2c(F)cc(F)cc2[nH]1 [Example 504, N-((S)-1-((3R,5'S)-5'-cyano-5-(1-fluorocyclopropane-1-carboxamido)-2-oxospiro[indoline-3,3'-pyrrolidin]-1'-yl)-4-methyl-1-oxopentan-2-yl)-4,6-difluoro-N-methyl-1H-indole-2-carboxamide] | < 0.1 µM | – | – | –
CC(C)C[C@@H](C(=O)N1C[C@]2(C[C@H]1C#N)C(=O)Nc1ccc(-n3cc(C4CC4)nn3)cc12)N(C)C(=O)c1cc2c(F)cc(F)cc2[nH]1 [Example 505, N-((S)-1-((3R,5'S)-5'-cyano-5-(4-cyclopropyl-1H-1,2,3-triazol-1-yl)-2-oxospiro[indoline-3,3'-pyrrolidin]-1'-yl)-4-methyl-1-oxopentan-2-yl)-4,6-difluoro-N-methyl-1H-indole-2-carboxamide] | < 0.1 µM | – | – | –
C[C@@H](OC(=O)N[C@@H](CC(C)(C)C)C(=O)N1C[C@]2(C[C@H]1C#N)C(=O)Nc1ccc(F)cc12)c1ccc(F)cc1 [Example 523] | – | – | < 0.1 µM | –
